Among the test systems are CHRF288-11; CMK; CMS; M07e; ML-2; MOLM-13; MV4-11; U937.
Holding throughout (design): species or system AML cell lines (8); Primary HTS, single concentration about 10 uM, Cell Titer Glo viability; log10 luminescence, per cent inhibition relative to cycloheximide control
Holding throughout (settings): 72 h, relative to cycloheximide control, log10 luminescence, inhibitor
(ATP-based viability assays read luminescence as a measure of living cells.)

Counter-ions that a name gives are not always drawn. Like-named read-outs stand apart in the source and are kept apart here.

Regarding `CCCCCCCCCCCCCCCCCCCCCCO` [SJ000565168-1, 1-DOCOSANOL (BEHENYL ALCOHOL)], the CHRF288-11 %inh in the assay on CHRF288-11 is on record as 5.263%. Further, in the assay on CMK, the CMK %inh was -5.554%. Further, the CMS %inh in the assay with CMS is -0.803%. In addition, the M07e %inh in the assay on M07e was found to be 3.056%. Also, the ML-2 %inh in the assay with ML-2 is -0.3569%. Moreover, the MOLM-13 %inh in the assay on MOLM-13 is -4.024%. In addition, in the assay with MV4-11, the MV4-11 %inh is listed as -0.7251%. Moreover, the U937 %inh in the assay with U937 was -0.3827%.
For the molecule `CS(=O)(=O)CCc1cccc(C(=O)c2cnn(-c3ccc(F)cc3)c2N)c1` [SJ000581118-1], the CHRF288-11 %inh in the assay with CHRF288-11 was -6.13%. The CMK %inh in the assay on CMK came to 3.205%. In the assay with CMS, the CMS %inh was found to be 3.108%. Also, the M07e %inh in the assay on M07e was 5.628%. Further, the ML-2 %inh with ML-2 stood at 0.2726%. In the assay on MOLM-13, the MOLM-13 %inh is reported as 3.918%. Also, the MV4-11 %inh with MV4-11 is 2.402%. In the assay with U937, the U937 %inh is listed as 3.157%.
Take `O=C(Nc1n[nH]c2nc(-c3ccco3)ccc12)C1CC1` [SJ000573271-1, VB100064-193A1]: in the assay with CHRF288-11, the CHRF288-11 %inh is recorded as 7.062%. Besides, the CMK %inh in the assay on CMK is -3.194%. The CMS %inh with CMS worked out at 0.8699%. For the same molecule, the M07e %inh in the assay with M07e is -1.707%. The ML-2 %inh in the assay with ML-2 is listed as -0.1888%. The MOLM-13 %inh in the assay with MOLM-13 stood at 1.202%. Further, the MV4-11 %inh in the assay with MV4-11 is reported as -0.2919%. In addition, the U937 %inh with U937 is recorded as -4.198%.
Consider `CCn1cc(C(=O)O)c(=O)c2cc(F)c(N3CCNCC3)nc21` [SJ000285962-4, ENOXACIN], for which, in the assay on CHRF288-11, the CHRF288-11 %inh came out at 7.607%. The CMK %inh in the assay with CMK is recorded as 15.64%. For the same molecule, the CMS %inh in the assay on CMS is listed as 4.313%. Also, the M07e %inh in the assay on M07e was 7.045%. In addition, the ML-2 %inh in the assay with ML-2 is listed as 32.21%. Also, in the assay with MOLM-13, the MOLM-13 %inh is listed as -2.8%. The MV4-11 %inh in the assay with MV4-11 came out at 40.28%. The U937 %inh in the assay with U937 was -0.8348%.
Take `CCOC(=O)C(C)Oc1cccc2c(=O)n(CC(=O)Nc3ccc4c(c3)OCCO4)ccc12` (centres unmarked) [SJ000565608-2, SID 7969543]: in the assay with CHRF288-11, the CHRF288-11 %inh was 4.074%. In the assay on CMK, the CMK %inh came to 1.565%. Besides, the CMS %inh in the assay with CMS was -1.631%. The M07e %inh with M07e is -1.631%. Moreover, the ML-2 %inh in the assay on ML-2 came out at 3.909%. In addition, the MOLM-13 %inh in the assay on MOLM-13 turned out to be 1.293%. The MV4-11 %inh with MV4-11 is 2.255%. For the same molecule, in the assay with U937, the U937 %inh is on record as -0.5022%.
Regarding `Cc1nnc(-c2ccc(C)c(-c3ccc(C(=O)NCc4ccc(Cl)cc4)cc3)c2)o1` [SJ000573166-1, R5419/62/6], the CHRF288-11 %inh with CHRF288-11 is recorded as -0.1255%. Besides, the CMK %inh with CMK turned out to be 2.525%. Besides, the CMS %inh with CMS turned out to be 4.153%. In addition, the M07e %inh with M07e was 6.199%. Besides, in the assay with ML-2, the ML-2 %inh came out at 2.787%. Moreover, in the assay on MOLM-13, the MOLM-13 %inh is recorded as 2.185%. Moreover, the MV4-11 %inh in the assay with MV4-11 is given as -0.3161%. The U937 %inh in the assay with U937 is reported as 3.066%.
As for `Cn1cc(C2=C(c3ccc(N)cc3)C(=O)NC2=O)c2ccccc21` [SJ000581160-1], the CHRF288-11 %inh in the assay on CHRF288-11 was determined as 1.792%. Moreover, the CMK %inh in the assay with CMK was 8.525%. In addition, the CMS %inh with CMS amounted to 6.332%. Also, the M07e %inh in the assay with M07e worked out at 7.926%. The ML-2 %inh in the assay on ML-2 is 2.229%. In the assay on MOLM-13, the MOLM-13 %inh worked out at 6.461%. The MV4-11 %inh in the assay on MV4-11 is 3.731%. In addition, the U937 %inh in the assay with U937 was determined as 1.651%.
As for `CC[C@H]1OC(=O)[C@H](C)[C@@H](O[C@H]2C[C@@](C)(OC)[C@@H](O)[C@H](C)O2)[C@H](C)[C@@H](O[C@@H]2O[C@H](C)C[C@H](N(C)C)[C@H]2O)[C@](C)(OC)C[C@@H](C)C(=O)[C@H](C)[C@@H](O)[C@]1(C)O` [SJ000286061-4, CLARITHROMYCIN], in the assay with CHRF288-11 (CHRF288-11 %inh, 10 µM), the CHRF288-11 %inh amounted to 4.27%. In addition, in the assay on CMK (CMK %inh, 10 µM), the CMK %inh was -0.3654%. The CMS %inh in the assay with CMS (CMS %inh, 10 µM) is reported as 4.035%. For the same molecule, the M07e %inh in the assay with M07e (M07e %inh, 10 µM) stood at 4.017%. In the assay with ML-2 (ML-2 %inh, 10 µM), the ML-2 %inh is recorded as -1.428%. For the same molecule, the MOLM-13 %inh with MOLM-13 (MOLM-13 %inh, 10 µM) came out at 0.6227%. The MV4-11 %inh in the assay with MV4-11 (MV4-11 %inh, 10 µM) was 1.784%. Further, in the assay on U937 (U937 %inh, 10 µM), the U937 %inh is on record as 1.816%.
For the molecule `CN(C)C(=O)O[C@@H]1CN[C@@H](C#Cc2cc3ncnc(Nc4ccc(OCc5cccc(F)c5)c(Cl)c4)c3s2)C1` [SJ000573053-2, U20298/139/1 | U20747/39/1], the CHRF288-11 %inh in the assay on CHRF288-11 was 39.41%. Further, in the assay on CMK, the CMK %inh is -4.505%. The CMS %inh in the assay with CMS is listed as 4.277%. Also, the M07e %inh in the assay on M07e is given as -1.206%. Also, in the assay on ML-2, the ML-2 %inh is 1.706%. For the same molecule, the MOLM-13 %inh in the assay on MOLM-13 is -3.067%. For the same molecule, the MV4-11 %inh in the assay on MV4-11 is recorded as -0.77%. Further, the U937 %inh in the assay on U937 came to 3.489%.
For the molecule `CC(CN(C)C)CN1c2ccccc2Sc2ccccc21` (centres unmarked) [SJ000285488-4, TRIMEPRAZINE TARTRATE], the CHRF288-11 %inh in the assay with CHRF288-11 was found to be 12.91%. For the same molecule, the CMK %inh in the assay on CMK stood at 71.37%. Further, the CMS %inh in the assay on CMS is reported as -1.909%. Further, the M07e %inh in the assay on M07e came out at 5.667%. Also, the ML-2 %inh in the assay on ML-2 is listed as 2.204%. For the same molecule, the MOLM-13 %inh in the assay on MOLM-13 worked out at 6.284%. The MV4-11 %inh with MV4-11 is 2.005%. Moreover, in the assay on U937, the U937 %inh is 3.719%.
On to `Cn1cc(C2=C(c3cn(CCCO)c4ccccc34)C(=O)NC2=O)c2ccccc21` [SJ000580995-1], for which the CHRF288-11 %inh in the assay on CHRF288-11 was 44.69%. For the same molecule, the CMK %inh in the assay with CMK is given as 64.37%. Further, in the assay on CMS, the CMS %inh is recorded as 6.597%. In addition, in the assay with M07e, the M07e %inh is on record as 3.572%. Also, in the assay with ML-2, the ML-2 %inh is listed as -3.665%. The MOLM-13 %inh in the assay on MOLM-13 worked out at 52.73%. In addition, the MV4-11 %inh with MV4-11 is reported as 37.67%. The U937 %inh in the assay with U937 came to 2.993%.
In the case of `CS(=O)(=O)CCNCc1cc(-c2cc3c(Nc4ccc(OCc5cccc(F)c5)c(Cl)c4)ncnc3s2)cs1` [SJ000573113-1, U20258/167/2], the CHRF288-11 %inh with CHRF288-11 is recorded as -4.074%. Further, the CMK %inh in the assay on CMK is 4.188%. The CMS %inh with CMS was 1.969%. For the same molecule, the M07e %inh with M07e is 1.088%. In addition, the ML-2 %inh in the assay with ML-2 is -1.098%. For the same molecule, in the assay on MOLM-13, the MOLM-13 %inh is listed as 4.183%. Besides, in the assay on MV4-11, the MV4-11 %inh came out at 1.359%. Besides, in the assay on U937, the U937 %inh amounted to 1.681%.
As for `COc1ccc(-c2ccc3c(NC(=O)C4CC4)n[nH]c3n2)cc1` [SJ000573088-1, BS100048-058B1], the CHRF288-11 %inh in the assay on CHRF288-11 was -3.869%. Moreover, the CMK %inh with CMK was 5.626%. Moreover, in the assay on CMS, the CMS %inh is -1.884%. The M07e %inh with M07e is reported as -1.122%. In addition, the ML-2 %inh with ML-2 is recorded as 1.731%. Further, in the assay with MOLM-13, the MOLM-13 %inh came out at 4.236%. The MV4-11 %inh in the assay with MV4-11 is given as -0.1427%. The U937 %inh with U937 is on record as 1.777%.
As for `N=C(N)NCCN1CCCCCCC1` [SJ000285779-4, GUANETHIDINE SULFATE], the CHRF288-11 %inh in the assay with CHRF288-11 was -6.834%. In addition, in the assay with CMK, the CMK %inh is -2.691%. Further, the CMS %inh with CMS is reported as -3.451%. In addition, the M07e %inh in the assay on M07e was 0.2704%. The ML-2 %inh with ML-2 is 1.503%. In the assay on MOLM-13, the MOLM-13 %inh is given as -0.2658%. For the same molecule, in the assay with MV4-11, the MV4-11 %inh was -2.801%. In addition, the U937 %inh in the assay with U937 is -2.581%.
Consider `CCn1c(-c2nonc2N)nc2c(C#CC(C)(C)O)nc(O[C@@H](CN)c3ccccc3)cc21` [SJ000573327-1, MS208738-058A1], for which, in the assay with CHRF288-11, the CHRF288-11 %inh was found to be 92%. In addition, the CMK %inh in the assay with CMK was determined as 85.94%. In addition, the CMS %inh in the assay on CMS is on record as 81.02%. Besides, the M07e %inh in the assay with M07e came out at 123.2%. Further, in the assay on ML-2, the ML-2 %inh was 56.05%. Also, in the assay with MOLM-13, the MOLM-13 %inh was determined as 95.38%. Further, the MV4-11 %inh with MV4-11 was determined as 81.31%. For the same molecule, the U937 %inh in the assay with U937 is 77.05%.
Consider `O=C1NC(=NCCc2cccc(Cl)c2)S/C1=C\c1ccc2ncccc2c1` [SJ000580956-1], for which the CHRF288-11 %inh in the assay with CHRF288-11 was found to be 2.333%. The CMK %inh with CMK was 32.59%. Further, the CMS %inh with CMS was determined as 5.008%. Also, in the assay on M07e, the M07e %inh amounted to 0.9407%. Further, the ML-2 %inh in the assay with ML-2 is recorded as 10.56%. In addition, the MOLM-13 %inh in the assay on MOLM-13 is 9.124%. Moreover, the MV4-11 %inh in the assay with MV4-11 stood at 2.972%. Besides, in the assay on U937, the U937 %inh came out at 20%.

The values are drawn from article PMC6522510 (Nature Communications, 2019).
